This is an account of results in patent publication US20190321311A1, “Cancer Treatment by Simultaneous Targeting Energy Metabolism and Intracellular pH” (Deutsches Krebsforschungszentrum, priority 2016, published 2019).

Structures are written as SMILES. Read-outs that look alike come from different tables or passages of the source.

Assay [1] relates to H1975 cells. The format is cell-based. Particulars: H1975 cells expressing EC-GFP, Metformin for 48 hours. From the text:
FIG. 1: Treatment with Metformin and combined preparations causes an intracellular pH drop in cancer cell lines. Intracellular pH measurements were done in cells expressing a pH sensitive variant of GFP (EC-GFP). Live cells were imaged at 405 nm and 488 nm excitation wavelengths to record control and pH-sensitive emissions, correspondingly. Eight biological replicates were done for each treatment. Error bars correspond to mean values±s.d.; P≤0.0001. a. […] Confocal microscopy of H1975 and HEK293 live cells expressing EC-GFP treated with Metformin for 48 hours. To rule out a possibility that GFP signal fading is due to degradation, after exposure to the drug, cells were transferred to media with pH 8.8 supplemented with 5 μM Nigericin for 30 minutes before re-imaging (Metformin pH 8.8 rescue). b, c. […] Intracellular pH measurements were done after cells were treated alone or in combination with Rotenone or/and Nigericin, and with Papaverine or/and Salinomycin for 27 or 48 hours in pH 6.5 buffer, as indicated.
Intracellular pH in indicated cancer cell lines and non-cancer 293T cells was measured using cell lines stabile expressing pH sensitive EC-GFP at two different excitation wave length to obtain 488 nm/405 nm ratios. […] 488/405 ratios were quantified using ImageJ (NIH) software.

Assay [2] relates to Sox4. The class given is cell-based. Particulars: Metformin 72 hours.
Method: Cells were densely seeded on 6-well plates. Starting on the following day, cells were treated with indicated drug combinations for 48 h in conditions imitating tumor environment: RPMI supplemented with 10% FCS and 20 mM PIPES, adjusted to pH 6.5. For non-cancer HEK293Tcells, non modified RPMI medium supplemented with 10% FCS was used. Cells were extracted only in Triton lysis buffer (as in example 3) and analyzed in Western Blot.
Cells were treated with combined preparations (Nigericin 10 nM, Rotenone 5 nM, Papaverine HCl 1 μm; Salinomycin 10 nM) with or without addition of NAC (N-acetyl cysteine) 1 mM, DOX (Doxycycline) and Minocycline 20 μM, Trolox (soluble form of vitamin E) 100 μM.
The subject of assay [3] is Sox4. The format is cell-based. The following applies: non-malignant HEK293t cells, Metformin 72 hours. Here is the method: (§1) For gene expression measurement, cells were seeded in 6 well plates. On the following day, cells were treated with 6 mM Metformin for 48 h in normal RPMI medium supplemented with 10% FCS. Cells were harvested using Trypsin/EDTA and divided in up to 3 aliquots. A first aliquot was used for RNA preparation using RNeasy kit (Qiagen) and subsequent quantitative reverse transcription-PCR (qRT-PCR) analysis with LC480 LightCycler (Roche). A second aliquot was extracted with Saponin buffer (0.05% Saponin, 1 mM MgCl2, 1×TBS, 2 mM ME, 1× protein inhibitor cocktail (Roche) for obtaining cytoplasmic protein fraction. This fraction was used for b-catenin protein detection. Third aliquot was extracted with Triton lysis buffer ((TBS (50 mM Tris pH7.4, 150 mM NaCl, 2.7 mM KCl), 1% Triton X-100, 2 mM β-mercaptoethanol (ME), 1 mM MgCl2, 10 mM sodium pyrophosphate, 10 mM NaF, 1× proteinase inhibitor cocktail). This aliquot was used for Sox4 and a-tubulin (control) protein detection. For second and third aliquots 20-35 μl of buffer was used for 500 000 cells. After centrifugation extracts were used for Western blot analysis.
Experiments were done as in example 3. Cells were densely seeded on 6-well plates. […] For non-cancer HEK293Tcells, non modified RPMI medium supplemented with 10% FCS was used. Cells were extracted only in Triton lysis buffer (as in example 3) and analyzed in Western Blot.

The subject of assay [4] is Wnt signaling pathway. The class given is cell-based. Particulars: cancer cell lines (FIG. 2A), 6 mM Metformin. Here is the method: as §1
Experiment was done as in example 3. […] CHOP protein was detected in Triton lysis buffer extract.

Assay [5] concerns Lung cancer H1975. The assay is described as follows: Cell viability assay, CellTiter-Glo, H1975. The following applies: Homo sapiens, NCI-H1975, 72 h, pH 6.5, read-out: fraction (%) of viable cells. Here is the method: (§2) Indicated cells were treated with indicated drug combinations for 48 h or as indicated in conditions imitating tumor environment—RPMI supplemented with 10% FCS and 20 mM PIPES, adjusted to pH 6.5. After treatment, cells were analyzed for cell viability: • using CellTiter-Blue® Cell Viability Assay, Promega according to manufacturer recommendations. For each treatment, the fraction (%) of viable cells are indicated. Untreated viable cells were set to 100%. Average data of 2 independent experiments are presented. Each independent experiment contained 4 biological replicates for each condition. • using CellTiter-Glo® Cell Viability Assay, Promega according manufacturer recommendations. For each treatment the fraction (%) of viable cells are indicated. Untreated viable cells were set to 100%. Each measurement represents the mean value of 4 biological replicates for each condition.

The test system of assay [6] is Mouse melanoma B16F10. As to the kind of experiment: Cell viability assay, CellTiter-Glo, B16F10. The following applies: Mus musculus, B16-F10, 48 h. Here is the method:
as §2

With `CN(C)C(=N)N=C(N)N` [Metformin], in assay [1], the “intracellular pH” value is on record as “causes intracellular acidification”. The “expression of endogenous Sox4” value in assay [2] (DLD1 and HCT116 cells) is listed as “inhibits expression of endogenous Sox4”. The “Wnt-inducible Sox4 expression” value in assay [2] (H1703 and H1299 cells, Wnt3a conditioned media 48 hours) is given as “inhibits Wnt-inducible Sox4”. The “expression of endogenous Sox4” value in assay [2] (H1975 cells) is “inhibits expression of endogenous Sox4”. In addition, the “expression of Sox4” value in assay [3] is “has no effect on Sox4”. Also, the “wnt signaling (Axin2 mRNA, cytoplasmic b-catenin)” value in assay [4] was “wnt signaling inhibitor”. For the same compound, in assay [5], the viability at 94 µM is 84%, the viability at 188 µM came to 70% and the viability at 375 µM came out at 45%. Besides, the viability at 750 µM in assay [6] (pH 6.5, read-out: fraction (%) of viable cells, Metformin 750 μM, Monensin 0.00 nM, pH 6.5) came out at 80%. Further, the viability at 1500 µM in assay [6] (pH 6.5, read-out: fraction (%) of viable cells, Metformin 1500 μM, Monensin 0.00 nM, pH 6.5) was 84%. Besides, in assay [6] (pH 6.5, read-out: fraction (%) of viable cells, Metformin 3000 μM, Monensin 0.00 nM, pH 6.5), the viability at 3000 µM came out at 9%.
